Data as given in the OPERA property sets (Mansouri et al. 2018).

Conditions: not given

Compound | melting point | log10 Koc (L/kg) | log10 vapour pressure (mmHg) | boiling point | ready biodegradability | log10 Henry constant (atm·m³/mol)
COCCOc1c(OC)cc(Cc2cnc(N)nc2N)cc1OC | 154 °C |  |  |  |  | 
COc1cc2c(cc1OC)[C@]1(O)C(=O)c3ccc4c(c3O[C@@H]1CO2)C=CC(C)(C)O4 | 198 °C |  |  |  |  | 
CCOCN(C(=O)CCl)c1c(C)cccc1CC |  | 2.32 |  |  |  | 
CCN(CC)C(=O)SCc1ccccc1Cl | 9 °C |  | -4.03 |  |  | 
Oc1c2ccccc2cc2ccccc12 | 152 °C |  |  |  |  | 
COC(=O)c1ccccc1C(=O)c1ccccc1 | 52 °C |  |  | 351 °C | not readily biodegradable | 
CC(C)c1ccc(O)cc1 | 62.3 °C |  | -1.34 | 230 °C |  | 
Cc1[nH]nc(Cl)c1[N+](=O)[O-] | 111 °C |  |  |  |  | 
SCCS | -41.2 °C |  | 0.749 | 146 °C |  | 
O=[N+]([O-])c1cc([N+](=O)[O-])c(Cl)c(C(F)(F)F)c1 | 63 °C |  |  |  |  | 
CC1(C)COC(C)(C)C1 |  |  |  | 121 °C |  | 
CC1(C)CC(N)CC(C)(CN)C1 (centres undefined) | 10 °C |  | -1.82 | 247 °C | not readily biodegradable | 
OCCN1CCN(CCCN2c3ccccc3C=Cc3ccccc32)CC1 | 100 °C |  |  |  |  | 
COc1cccc2ccccc12 |  |  |  | 269 °C | not readily biodegradable | 
C[C@@H]1CC[C@@H](C)S1 | -89 °C |  |  | 142 °C |  | 
NCCNCCO | -38 °C |  |  | 239 °C | not readily biodegradable | 
Nc1cc([N+](=O)[O-])ccc1Cl | 121 °C |  |  |  |  | 
COC1=CC(=O)C[C@@H](C)[C@]12Oc1c(Cl)c(OC)cc(OC)c1C2=O | 220 °C |  |  |  |  | 
CC(O)CN (centres undefined) | 25 °C |  | -0.328 | 160 °C |  | 
CC(=O)Nc1ccc(N)cc1 | 166 °C |  |  | 267 °C | readily biodegradable | 

Compound | melting point | log10 Koc (L/kg) | log10 vapour pressure (mmHg) | boiling point | ready biodegradability | log10 Henry constant (atm·m³/mol)
CCNc1nc(NC(C)C)nc(SC)n1 | 88 °C | 2.59 | -5.56 | 345 °C | not readily biodegradable | 
CN1CSC(=S)N(C)C1 | 106 °C | 1 | -5.55 |  | not readily biodegradable | -9.58
CC(C)COCCO |  |  |  | 160 °C |  | 
Nc1cc(-c2ccccc2)ccc1O | 200 °C |  |  |  |  | 
N#CCC#N | 32 °C |  | -0.698 | 218 °C |  | 
C=C(C)C=O | -81 °C |  | 2.19 | 68.4 °C |  | -3.63
Oc1c(I)cc(Cl)c2cccnc12 | 178 °C |  |  |  |  | 
ClCc1ccc(CCl)cc1 | 100 °C |  |  |  |  | 
CC(=O)c1cccc2ccccc12 | 34 °C |  | -3.41 | 297 °C |  | 
C1CN1P1(N2CC2)=NP(N2CC2)(N2CC2)=NP(N2CC2)(N2CC2)=N1 | 148 °C |  |  |  |  | 
CC[C@@H](C(=O)O)c1ccccc1 | 47.5 °C |  |  | 271 °C |  | 
CCO[Si](C)(C)C |  |  | 2.06 | 76 °C |  | 
CCCCOC(=O)c1ccc(C(=O)OCCCC)c(C(=O)OCCCC)c1 |  |  |  |  | readily biodegradable | 
CCCCCC[C@@H](O)C/C=C\CCCCCCCC(=O)O | 5.5 °C |  |  |  |  | 
O[C@@H]1CCc2ccccc21 | 54.8 °C |  |  | 220 °C |  | 
CCCCCCCCC=CCCCCCCCC(=O)OCC(O)C1OCC(O)C1O (centres undefined) |  |  |  |  | readily biodegradable | 
CC(=O)c1ccccc1C |  |  |  | 214 °C |  | 
C1CCC(CCC2CCCCC2)CC1 | 11.5 °C |  |  | 272 °C |  | 
O=C1C(Cl)=C(Cl)C(=O)C(Cl)=C1Cl | 290 °C | 2.32 |  |  |  | 
O=C1c2cc([N+](=O)[O-])ccc2-c2ccc([N+](=O)[O-])cc21 | 294 °C |  |  |  |  | 

Compound | melting point | log10 Koc (L/kg) | log10 vapour pressure (mmHg) | boiling point | ready biodegradability | log10 Henry constant (atm·m³/mol)
C=CC(=O)OCCCC | -64.6 °C |  | 0.737 | 145 °C | readily biodegradable | 
CC(C)(C)SC(C)(C)C | -9 °C |  |  | 149 °C |  | 
CC1=CCC(=O)O1 | 18 °C |  |  |  |  | 
O=C(Nc1ccc(Cl)cc1)Nc1ccc(Cl)c(Cl)c1 | 256 °C |  |  |  | not readily biodegradable | 
O=C(Oc1ccccc1)n1c(C(F)(F)F)nc2cc(Cl)c(Cl)cc21 | 103 °C |  |  |  |  | 
CCOC(=O)CCC=O |  |  |  | 162 °C |  | 
C=C(Br)c1ccccc1 | -44 °C |  |  |  | not readily biodegradable | 
Oc1ccc(Br)c2cccnc12 | 124 °C |  |  |  |  | 
O=C1CCC(c2ccccc2)CC1 | 79.5 °C |  |  |  |  | 
CNC(=O)Oc1cc(C)cc(C)c1 | 99 °C | 1.71 | -3.44 |  | not readily biodegradable | 
Cc1cccc2c1CC=C2 |  |  |  | 209 °C |  | 
COC(=O)C1(S(=O)(=O)c2ccc(Br)cc2)CCCCC1 | 112 °C |  |  |  |  | 
CCOC(=O)c1ccccc1 | -34 °C | 2.3 | -0.574 | 212 °C |  | 
C1CSCSC1 | 54 °C |  |  |  |  | 
CCC1(CC)C(=O)NC(=O)N(C)C1=O | 150 °C |  |  |  |  | 
CCc1cccc(-c2ccccc2)c1 | -27.5 °C |  |  | 284 °C |  | 
O=C(OC(=O)C(F)(F)C(F)(F)F)C(F)(F)C(F)(F)F |  |  |  | 73 °C |  | 
O=S(=O)(O)CCCN1CCOCC1 | 284 °C |  |  |  |  | 

Same assay, conditions: fish

Compound | log10 BCF | log10 biotransformation half-life (days)
CCc1nn(C)c(C(=O)NCc2ccc(C(C)(C)C)cc2)c1Cl | 1.15 | 
CC(C)c1ccccc1C(C)C | 2.14 | 
C=CCCC(CC)CCCC (centres undefined) |  | 0.93
COC(=O)c1ccccc1C(=O)c1ccccc1 | 1.15 | -1.3
COc1cccc2ccccc12 | 2.21 | 0.39
NCCNCCO | 0.46 | 
C1CCC(CCC2CCCCC2)CC1 |  | 0.13
CNC(=O)Oc1cc(C)cc(C)c1 | 0.4 | 
